Source: the NIST ThermoML archive (doi:10.1016/j.jct.2018.10.007)

Details: Liquid, Rate of evaporation

CCCCCCCCCCCCCC[P+](CCCC)(CCCC)CCCC.O=S(=O)([N-]S(=O)(=O)C(F)(F)F)C(F)(F)F
Details	vapor or sublimation pressure [kPa]
393.28 K	1.6e-09
395.67 K	2e-09
398.14 K	2.9e-09
400.54 K	4.1e-09
403.07 K	5.3e-09
405.5 K	7.3e-09
408.02 K	1e-08
410.51 K	1.4e-08
413.04 K	1.8e-08
415.54 K	2.5e-08
418.06 K	3.3e-08
420.57 K	4.4e-08
423.09 K	6e-08
425.61 K	7.6e-08
428.14 K	1.03e-07
430.65 K	1.35e-07
433.18 K	1.7e-07
435.69 K	2.23e-07
438.18 K	2.92e-07
440.71 K	3.73e-07

CCCCCCCCCCCCCC[P+](CCCCCC)(CCCCCC)CCCCCC.O=S(=O)([N-]S(=O)(=O)C(F)(F)F)C(F)(F)F
Details	vapor or sublimation pressure [kPa]
399.34 K	2.3e-11
404.33 K	4.6e-11
405.52 K	5.3e-11
407.95 K	7.1e-11
408.01 K	7.5e-11
409.24 K	8.6e-11
409.33 K	8.9e-11
410.52 K	1e-10
412.96 K	1.4e-10
413 K	1.5e-10
413.93 K	1.7e-10
414.15 K	1.7e-10
414.24 K	1.7e-10
414.33 K	1.7e-10
415.52 K	2e-10
417.97 K	2.9e-10
418 K	2.7e-10
419.13 K	3.2e-10
419.16 K	3.3e-10
419.24 K	3.1e-10
419.33 K	3.2e-10
420.52 K	3.8e-10
422.97 K	5.4e-10
423.01 K	5.1e-10
423.46 K	5.2e-10
424.17 K	6.4e-10
424.24 K	6.4e-10
424.31 K	6.1e-10
425.53 K	7.3e-10
427.91 K	9.2e-10
427.98 K	1e-09
428.01 K	1e-09
429.18 K	1e-09
429.24 K	1e-09
429.26 K	1.1e-09
430.53 K	1.3e-09
432.25 K	1.5e-09
433 K	1.8e-09
433.02 K	1.7e-09
434.17 K	2e-09
434.2 K	1.9e-09
434.24 K	1.9e-09
435.54 K	2.3e-09
436.8 K	2.6e-09
438.01 K	3.1e-09
438.02 K	3e-09
439.04 K	3.4e-09
439.21 K	3.6e-09
439.23 K	3.4e-09
440.54 K	4e-09
441.79 K	4.6e-09
443.01 K	5.2e-09
443.03 K	5.2e-09
443.88 K	5.8e-09
444.2 K	5.9e-09
444.26 K	6.3e-09
445.56 K	6.9e-09
446.75 K	8e-09
448.02 K	8.9e-09
448.07 K	8.7e-09
449.16 K	1e-08
449.26 K	1e-08
450.57 K	1.2e-08
451.67 K	1.4e-08
453.06 K	1.4e-08
454.09 K	1.7e-08
454.27 K	1.9e-08
456.51 K	2.2e-08
458.95 K	2.8e-08

CCCCCC[P+](CCCCCC)(CCCCCC)CCCCCC.[Br-] [tetrahexylphosphonium bromide]
Details	vapor or sublimation pressure [kPa]
400.93 K	3.7e-10
403.37 K	5.3e-10
403.43 K	5e-10
408.28 K	9.5e-10
408.37 K	9.4e-10
410.79 K	1.2e-09
410.8 K	1.3e-09
410.82 K	1.3e-09
413.22 K	1.7e-09
413.3 K	1.7e-09
415.71 K	2.1e-09
415.72 K	2.2e-09
415.78 K	2.3e-09
418.18 K	2.9e-09
418.27 K	2.9e-09
420.76 K	3.9e-09
423.16 K	5.2e-09
423.23 K	5.4e-09
425.66 K	6.9e-09
425.67 K	6.8e-09
425.75 K	6.8e-09
428.16 K	8.8e-09
428.22 K	8.9e-09
430.73 K	1.2e-08
433.18 K	1.5e-08
433.24 K	1.5e-08
435.67 K	2e-08
435.68 K	2e-08
435.75 K	2e-08
438.21 K	2.5e-08
438.25 K	2.6e-08
440.7 K	3.3e-08
440.72 K	3.3e-08
440.77 K	3.4e-08
443.24 K	4.2e-08
443.29 K	4.3e-08
445.74 K	5.5e-08
445.75 K	5.5e-08
445.79 K	5.8e-08
448.3 K	7.2e-08
448.31 K	7.1e-08
450.8 K	9.1e-08
450.81 K	9e-08

CCCCCC[P+](CCCCCC)(CCCCCC)CCCCCC.F[P-](F)(F)(F)(F)F [tetrahexylphosphonium hexafluorophosphate]
Details	vapor or sublimation pressure [kPa]
395.83 K	2e-10
400.74 K	3.8e-10
405.65 K	7e-10
408.42 K	1e-09
410.61 K	1.3e-09
413.37 K	1.9e-09
415.59 K	2.4e-09
418.31 K	3.4e-09
423.24 K	5.9e-09
428.21 K	1e-08
430.65 K	1.4e-08
433.2 K	1.8e-08
435.66 K	2.4e-08
438.23 K	3.1e-08
440.69 K	4e-08
443.24 K	5e-08
445.73 K	6.7e-08
448.28 K	8.5e-08
451.57 K	1.23e-07
453.41 K	1.42e-07

CCCCCCCC[P+](CCCCCCCC)(CCCCCCCC)CCCCCCCC.[Cl-] [tetraoctylphosphonium chloride]
Details	vapor or sublimation pressure [kPa]
408.38 K	1.5e-10
410.9 K	2.3e-10
413.32 K	2.9e-10
413.46 K	3.3e-10
415.87 K	4.2e-10
418.26 K	5.5e-10
418.44 K	5.9e-10
420.79 K	7.9e-10
423.23 K	1e-09
423.41 K	1.2e-09
425.8 K	1.5e-09
428.2 K	2e-09
428.36 K	2e-09
430.73 K	2.7e-09
433.18 K	3.8e-09
433.31 K	3.7e-09
435.74 K	5e-09
438.21 K	6.7e-09
438.28 K	6.6e-09
440.77 K	8.8e-09
443.21 K	1.2e-08
443.3 K	1.2e-08
445.8 K	1.5e-08
448.27 K	2.1e-08
448.33 K	2e-08
450.84 K	2.6e-08
453.31 K	3.9e-08
453.36 K	3.4e-08
455.89 K	4.6e-08
458.4 K	6.2e-08

CCCCCCC[P+](CCCCCC)(CCCCCC)CCCCCC.O=S(=O)([N-]S(=O)(=O)C(F)(F)F)C(F)(F)F [trihexylheptylphosphonium bis(trifluoromethanesulfonyl)imide]
Details	vapor or sublimation pressure [kPa]
408.53 K	6.2e-10
410.91 K	8.8e-10
413.56 K	1.1e-09
415.89 K	1.6e-09
418.57 K	2.1e-09
420.85 K	2.8e-09
423.58 K	3.8e-09
425.82 K	4.9e-09
428.58 K	6.7e-09
430.8 K	8.5e-09
433.58 K	1.2e-08
435.79 K	1.5e-08
438.58 K	2e-08
440.78 K	2.5e-08
443.58 K	3.4e-08
445.8 K	4.2e-08
448.56 K	5.8e-08
450.83 K	7e-08
453.59 K	9.5e-08
455.88 K	1.16e-07

CCCCCCC[P+](CCCCCC)(CCCCCC)CCCCCC.F[P-](F)(F)(F)(F)F [trihexylheptylphosphonium hexafluorophosphate]
Details	vapor or sublimation pressure [kPa]
405.87 K	3.6e-10
408.4 K	4.9e-10
410.8 K	6.7e-10
413.34 K	9e-10
415.74 K	1.2e-09
418.27 K	1.6e-09
420.69 K	2.2e-09
423.22 K	2.8e-09
425.68 K	3.8e-09
428.2 K	4.9e-09
430.66 K	6.5e-09
433.19 K	8.4e-09
435.68 K	1.1e-08
438.21 K	1.5e-08
440.7 K	1.9e-08
443.24 K	2.5e-08
445.74 K	3.1e-08
448.28 K	4.2e-08
450.97 K	5.3e-08
453.32 K	6.9e-08

CCCCCCCC[P+](CCCCCC)(CCCCCC)CCCCCC.F[P-](F)(F)(F)(F)F [trihexyloctylphosphonium hexafluorophosphate]
Details	vapor or sublimation pressure [kPa]
408.34 K	3.4e-10
410.85 K	4.4e-10
410.96 K	4.8e-10
413.36 K	6.3e-10
415.82 K	8.4e-10
415.89 K	8e-10
418.37 K	1.1e-09
420.79 K	1.5e-09
420.83 K	1.5e-09
423.37 K	2e-09
425.75 K	2.7e-09
425.79 K	2.7e-09
428.38 K	3.6e-09
430.75 K	4.6e-09
430.81 K	4.7e-09
433.38 K	6.1e-09
435.72 K	8e-09
435.73 K	7.9e-09
438.4 K	1.1e-08
440.74 K	1.4e-08
443.39 K	1.8e-08
445.76 K	2.3e-08
448.39 K	3e-08
450.79 K	3.9e-08
450.8 K	3.8e-08
453.43 K	5.1e-08
455.83 K	6.5e-08
455.85 K	6.4e-08

CCCCCC[P+](CCCCC)(CCCCCC)CCCCCC.F[P-](F)(F)(F)(F)F [trihexylpentylphosphonium hexafluorophosphate]
Details	vapor or sublimation pressure [kPa]
403.41 K	5e-10
405.89 K	6.6e-10
408.27 K	8.8e-10
410.78 K	1.2e-09
413.19 K	1.6e-09
415.69 K	2.1e-09
418.15 K	2.8e-09
420.65 K	3.7e-09
423.13 K	4.8e-09
425.62 K	6.5e-09
428.15 K	8.5e-09
430.63 K	1.1e-08
433.15 K	1.4e-08
435.65 K	1.8e-08
438.17 K	2.4e-08
440.7 K	3.1e-08
443.21 K	3.9e-08
445.73 K	5.1e-08
448.25 K	6.5e-08
450.79 K	8.3e-08
